Laboratory results taken from patent US5834518A, “Use of N,N'-dibenzylethylenediamine-N,N'-diacetic acid derivatives as depigmenting agents” (L'Oreal, priority 1996, dated 1998).

Columns and labels:
[1] = target: T1, human melanocyte tyrosinase (Homo sapiens, UniProt P14679); experiment: dopa-oxidase activity of human melanocyte tyrosinase after culturing melanocytes with compound; format: cell-based; conditions: human melanocytes cultured three days, 5 mM L-dopa, absorbance 475 nm, read-out: Percentage of inhibition
T1 construct: Human melanocytes are prepared and cultured; endogenous in cells; host or cells: cultured human melanocytes
T1 sequence (P14679 19-529): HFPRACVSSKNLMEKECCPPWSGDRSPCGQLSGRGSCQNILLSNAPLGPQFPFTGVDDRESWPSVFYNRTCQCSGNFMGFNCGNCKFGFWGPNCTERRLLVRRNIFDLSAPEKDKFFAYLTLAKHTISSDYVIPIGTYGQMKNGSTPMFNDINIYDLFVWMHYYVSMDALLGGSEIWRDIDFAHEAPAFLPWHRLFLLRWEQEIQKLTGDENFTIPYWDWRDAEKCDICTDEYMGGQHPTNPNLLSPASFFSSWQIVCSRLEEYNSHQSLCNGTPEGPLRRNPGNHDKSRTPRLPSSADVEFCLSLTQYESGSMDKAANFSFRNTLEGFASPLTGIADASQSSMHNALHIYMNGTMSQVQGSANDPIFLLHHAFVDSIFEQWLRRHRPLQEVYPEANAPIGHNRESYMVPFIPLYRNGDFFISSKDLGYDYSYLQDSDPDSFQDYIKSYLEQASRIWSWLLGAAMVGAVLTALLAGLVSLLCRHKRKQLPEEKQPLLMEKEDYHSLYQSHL
Protocol: The effectiveness of the compound of formula (1) as a tyrosinase inhibitor is determined by evaluating its effect on the dopa-oxidase activity of human melanocyte tyrosinase. The compound tested is N,N'-di(3-hydroxybenzyl)ethylenediamine-N,N'-diacetic acid of formula (II): [drawing 5]
Human melanocytes are prepared and cultured and then introduced into media containing different, non-cytotoxic concentrations of the compound of formula (II) (0.1 mM, 0.25 mM, 0.5 mM and 0.75 mM). After three days, the melanocytes are "trypsinized" in a mixture of trypsin/0.05% EDTA/0.02% in a phosphate buffer (50 mM at pH 6.8), washed three times in the phosphate buffer containing 1% (w/v) Triton x-100 and subjected to ultrasound. After centrifugation, samples are taken and mixed with 5 mM L-dopa in phosphate buffer. The tyrosinase activity is evaluated by spectrophotometry by measuring the increase in the absorbance at 475 nm because of the formation of dopachrome from 5 mM dope. The absorbance is read on a microplate reader at 25° C. for 60 min.
The activity of the cellular tyrosinase is measured relative to a standard range prepared with commercial tyrosinase.

Human melanocytes = experiment: cytotoxicity to cultured human melanocytes; format: cell-based; conditions: 0.1 mM, 0.25 mM, 0.5 mM and 0.75 mM in human melanocyte culture

In the case of `O=C(O)CN(CCN(CC(=O)O)Cc1cccc(O)c1)Cc1cccc(O)c1` [compound of formula (II), N,N'-di(3-hydroxybenzyl)ethylenediamine-N,N'-diacetic acid], the inhibition at 100 µM ([1]; 0.1 mM compound) is reported as 19%, the inhibition at 250 µM ([1]; 0.25 mM compound) is reported as 30% and the inhibition at 500 µM ([1]; 0.5 mM compound) is reported as 33%. The inhibition at 750 µM ([1]; 0.75 mM compound) was 42% and the “cytotoxicity of the concentrations used” value (Human melanocytes) was “non-cytotoxic”.
